Experimental findings from a melting point compilation (Tetko et al.; mined from patent text by program, amines drawn as free bases though some values may be those of a salt) are described below.

Usually melting point stands for the temperature of the solid-liquid transition. In the case of `CC(C)=CCn1nc(C(=O)c2cccc(O)c2)c2ccccc21`, the melting point was 92 to 94 °C.

Compound `CCON=C(CC)C1=C(O)CC(c2ccc(NC(C)=O)cc2)CC1=O` (stereo not drawn) returned a melting point of 135 to 136 °C.

`Cc1cc(Cl)c2c(n1)C(O)CCC2` (stereo not drawn) returned a melting point of 87 to 90 °C.

Turning to `COc1ccccc1NC(=O)Nc1nc(Nc2ccccc2C(=O)O)nc(Nc2ccccc2-c2ccccc2)n1`, the melting point was 228 °C.

For the compound `CS(=O)(=O)Nc1cc(O)ccc1Oc1ccccc1`, the melting point lay within 138 to 140 °C.

`O=C(c1ccccc1)c1cc2c(cc1O)C(C(=O)O)CC2` (stereo not drawn) had a melting point of 185 to 187 °C.

With `N#Cc1ccc(NC(=O)n2ccc3cc(Oc4cc(CC(N)=O)ncn4)ccc32)cc1C(F)(F)F`, the melting point was in the range of 204 to 209 °C.

In turn, `CCN(CC)C(=O)[C@@H](C)[C@H]1CC[C@H]2[C@@H]3CCC4=CC(=O)CC[C@]4(C)[C@H]3CC[C@]12C` gave a melting point of 198 to 199 °C.

In the case of `CC(C)(C)OC(=O)N1CCN(c2cccc3c2cnn3S(=O)(=O)c2ccccc2)CC1`, the melting point is 130 °C.

Compound `Nc1ccc(Cl)cc1NC1CCN(Cc2ccccc2)CC1` had a melting point of 108 °C.

The compound `CC(C)(C)OC(=O)NC(Cc1ccc(O)cc1)C(=O)N1CCc2c(sc(N)c2C(=O)c2ccccc2)C1` (stereo not drawn) showed a melting point of 143 to 145 °C.

For the compound `CN(C)CCCSc1ccc2ccc(N)nc2n1`, the melting point came out at 164 °C.

Regarding `CCOC(=O)C(=O)Nc1ccc2c(c1)OCC(=O)N2`, the melting point lay within 239 to 240 °C.

Regarding `Cc1nn(-c2cc(C(F)(F)F)ccc2Cl)cc1C(=O)O`, the melting point was in the range of 206 to 208 °C.

`COc1ccc(Nc2cnc3c(NCc4ccccc4)nc(NCCO)nc3c2)cc1` came in with a melting point of 126 to 127 °C.

In turn, `CC(CCCI)C(=O)Nc1nnc(C(C)(C)C)s1` (stereo not drawn) came in with a melting point of 102 °C.

For the compound `CNc1ccnc(C2=Cc3ccccc3CC2)c1`, the melting point is 106 to 107 °C.

On to `CC(=O)Oc1cc2oc(=O)cc(CSc3ccccc3C(=O)O)c2cc1OC(C)=O`, for which the melting point was 216 to 218 °C.

The compound `CC(C)(CCl)C(=O)N(Cc1ccccc1Cl)OC(=O)c1ccccc1` showed a melting point of 117 to 120 °C.

In turn, `CC(C)C(C)C(=O)NC(C)(Cc1c[nH]c2ccccc12)C(=O)NCCc1ccccc1` (stereo not drawn) yielded a melting point of 104 to 109 °C.

`COc1ccc(-n2c(-c3ccccn3)nc(SC)c(C#N)c2=O)cc1` had a melting point of 246 to 253 °C.

`O=C1N(c2ccccc2Br)Cc2cnc(Nc3ccccc3)nc2N1c1cccc(CO)c1` registered a melting point of 136 °C.

The compound `COc1ccnc(CCc2nc3cc(-c4ccc(S(=O)(=O)Nc5ccc(N(C)C)cc5)cc4)cnc3[nH]2)c1` gave a melting point of 221 to 222 °C.

Consider `COc1ccc(CCNC(=O)C(F)(F)F)cc1S(N)(=O)=O`, for which the melting point was 165 to 166 °C.

As to `COC(=O)c1nc(Cl)n2c1CN=C(c1ccccc1Cl)c1cc(Cl)ccc1-2`, the melting point lay within 200 to 202 °C.

Take `CCOC(=O)c1cc2c(nc1C)C(=Cc1ccc(OC(C)=O)cc1)CCC2`: the melting point came to 112 °C.

`CCOC(=O)C1=Cc2cc(C)ccc2SC1C(F)(F)F` (stereo not drawn) registered a melting point of 93.1 to 94.7 °C.

On to `CC(C)CC(CO)NC(=O)C(Cc1c[nH]cn1)NC(=O)C(Cc1cccc2ccccc12)NC(=O)COc1cccc2ccccc12` (stereo not drawn), for which the melting point was in the range of 215 to 217 °C.

As to `CC1CC(=O)N(c2ccccn2)N=C1c1ccc(OC2CCN(C(=O)OC(C)(C)C)CC2)cc1` (stereo not drawn), the melting point lay in the range of 164 to 166 °C.

Take `CCCCc1nc2cccc(C(=O)O)c2n1Cc1ccc2nc(-c3ccccc3-c3nnn[nH]3)ncc2c1`: the melting point lay in the range of 188 to 191 °C.

For `N#CC1(NC(=O)c2ccccc2C(=O)O)CCCCC1`, the melting point lay in the range of 154 to 156 °C.

As to `N#Cc1cc(-c2ccc(Cl)cc2)c[nH]c1=O`, the melting point is 278 to 280 °C.

For the compound `O=[N+]([O-])c1ccc(OCc2ccccc2)c2cnsc12`, the melting point was in the range of 158 to 160 °C.

Compound `CCCCCCC1c2cc(CC#N)ccc2-c2ccc(CC#N)cc21` came in with a melting point of 130 to 131 °C.

The compound `CN(C)c1ccc(C=Cc2cc3cc(O)ccc3o2)cc1` gave a melting point of 177 to 178 °C.

As for `CC(C)Cn1nc(-c2ccc(O)cc2O)c2cccc(C(F)(F)F)c21`, the melting point lay in the range of 91 to 92 °C.

`CC(C)c1nn(-c2ccccn2)c(-c2ccc(F)cc2)c1Br`: the melting point is 98 to 100 °C.

Take `O=Cc1ccc(OC2CCCC2)c(Oc2ccc([N+](=O)[O-])cc2Br)c1`: the melting point fell in the range of 92 to 94 °C.

The compound `O=C(c1ccc(Cn2cnc3cnccc32)cc1)N1CCOCC1` came in with a melting point of 119 to 121 °C.

Consider `COc1cc(Cl)c2ncccc2c1`, for which the melting point was in the range of 74 to 75 °C.

As to `C=C(C)C(=O)Oc1ccc(N(C)S(C)(=O)=O)cc1`, the melting point is 126 to 127 °C.

In turn, `CCCOc1ccc(C#N)cc1-c1ccc(C#N)c(=O)[nH]1` came in with a melting point of 248 to 251 °C.

The compound `Cc1c(N2CC(COC(=O)C(C)C)C(COC(=O)C(C)C)C2)c(F)cc2c(=O)c(C(=O)O)cn(C3CC3)c12` (stereo not drawn) yielded a melting point of 141 to 143 °C.

`O=c1cc(CBr)n(Cc2ccccc2)cc1OCCC12CC3CC(CC(C3)C1)C2`: the melting point was 200 to 203 °C.

For `Fc1ccc(Cn2c(NC3CCN(CCc4cn5ccsc5n4)CC3)nc3ccccc32)cc1`, the melting point came to 223 °C.

With `O=C(NO)c1ccc(CNC(=O)c2[nH]c(-c3cccs3)cc2-c2ccc(F)cc2)cc1`, the melting point was 214 to 216 °C.

As for `COC(=O)CCC(=O)c1ccccc1OCC(O)CNC(C)(C)C` (stereo not drawn), the melting point was in the range of 80 to 81.5 °C.

`CC(=O)c1c(-c2ccc(F)cc2)sc(-c2ccncc2)c1C` gave a melting point of 116 to 118 °C.

`O=S1(=O)N=CN(C2CC2)c2c1ccc(F)c2Cl` registered a melting point of 147 to 148 °C.

As for `N#CC1CN1C(=O)NC(=O)C(Cl)Cl` (stereo not drawn), the melting point was 164 to 166 °C.

Take `CC(=NNc1ccc([N+](=O)[O-])cc1)c1ccccc1`: the melting point fell in the range of 186 to 188 °C.

Compound `CC1=NS(=O)(=O)N(Cc2ccncc2)C=C1` registered a melting point of 100 to 101 °C.

In the case of `CCN(C(=O)C(NS(=O)(=O)c1c(C)cc(C)cc1C)C(C)C)c1ccccc1` (stereo not drawn), the melting point was in the range of 156 to 158 °C.

`Cc1noc(C)c1S(=O)(=O)Nc1ccc(Cl)cc1[N+](=O)[O-]` displayed a melting point of 130 to 131 °C.

In turn, `c1ccc(Nc2nc(-c3ccncc3)nc3ccccc23)cc1` yielded a melting point of 270 to 274 °C.

Take `CC(C)(C)c1ccc(CCC(CO)CC2CCCCC2)cc1NC(=O)CC1c2ccccc2Oc2ccccc21` (stereo not drawn): the melting point fell in the range of 130 to 131 °C.

As for `N#Cc1ncc(NCCO)nc1N1CCN(c2ccc(F)cc2)CC1`, the melting point is 149 to 151 °C.

In turn, `c1ccc(CC(Cc2ccccc2)(c2nnn[nH]2)c2nnn[nH]2)cc1` registered a melting point of 228 to 230 °C.

Compound `O=C(O)C1CCCN2CC(CS)C(=O)N12` (stereo not drawn) displayed a melting point of 146 to 147 °C.

The compound `COc1cc([N+](=O)[O-])c2ncccc2c1OCC(F)(F)F` had a melting point of 109 to 115 °C.

`NC(N)=NC(=O)Cn1c(Cl)c(Cl)c(Cl)c1Cl` gave a melting point of 215 to 217 °C.

The compound `Cc1cc(C(=O)NN)ccc1Br` gave a melting point of 164 to 166 °C.

The compound `COc1cc2c(cc1OC)-c1cc(=Nc3c(C)cc(C)cc3C)n(C)c(=O)n1CC2` registered a melting point of 151 to 152 °C.

Turning to `Nc1cc(=O)nc(Nc2ccccc2)n1-c1ccccc1`, the melting point lay in the range of 202 to 206 °C.

Compound `COc1ccc(C(Cc2ccccc2)C2=C(C)N=NC2=O)cc1OC1CCCC1` (stereo not drawn) gave a melting point of 88 to 90 °C.

With `Cn1nc(-c2ccccc2)nc1-c1ccccc1CBr`, the melting point fell in the range of 83 to 85 °C.

Compound `Cc1ccc2c(c1)c1cc(-c3ccc(Cl)cc3Cl)c(=O)n(C)c1n2CCO` yielded a melting point of 240 °C.

The compound `CC(c1ccc(-c2ccccc2)c(F)c1)c1nc(CC#N)no1` (stereo not drawn) came in with a melting point of 111 to 112 °C.

`Cc1ccc2[nH]c3c(cc(-c4cccc(Nc5ccccn5)c4)c(=O)n3C)c2c1` displayed a melting point of 250 to 252 °C.

`O=C1NC(=O)C(Cc2ccc(S(=O)(=O)CCc3ccccc3)cc2)S1` (stereo not drawn) showed a melting point of 201 to 203 °C.

Consider `Cc1cccc(NC(=O)NCC(=O)N(c2ccccc2)C(C(=O)OC(C)(C)C)c2ccccc2Cl)c1` (racemic), for which the melting point was 181 °C.

Take `COc1cc(Cc2cnc(NCCSCc3csc(CN(C)C)n3)[nH]c2=O)ccn1`: the melting point lay within 79 to 80 °C.

`CCCCc1cc(C(O)=S)cc(N)c1Cc1ccccc1` registered a melting point of 136 to 138 °C.

Regarding `CCN1c2c(oc(=O)n(-c3ccccn3)c2=O)-c2ccccc2S1(=O)=O`, the melting point was 268 to 270 °C.

Take `CCOC(=O)c1cn(C2CC2)c2c(C)c(F)c(F)cc2c1=O`: the melting point is 220 to 221 °C.

In turn, `O=C1C=CC(=O)c2nccnc21` displayed a melting point of 172 to 173 °C.

`O=C(Nc1n[nH]c2cc(Cl)ccc12)c1ccccn1` returned a melting point of 177 °C.

For `Cn1ncc(C(=O)O)c1C(=O)Nc1ccc2nc(-c3ccccc3)nn2c1`, the melting point was 259 °C.

In the case of `CN1C(=N)CN(c2ccccc2)C1=O`, the melting point is 156 to 158 °C.

Turning to `CC(C)=CCc1c(O)ccc(C(=O)C=Cc2ccc(O)cc2)c1O`, the melting point fell in the range of 75 to 76 °C.

`CCC1=NNC(C)=C(C(=O)OCc2ccco2)C1c1cccc([N+](=O)[O-])c1` (stereo not drawn) registered a melting point of 152 °C.

With `CCOC(=O)CCc1cc(-c2ccccc2)n(-c2ccc(S(C)(=O)=O)cc2)n1`, the melting point fell in the range of 96.5 to 99.1 °C.

`CC1(C)CCC(Cc2ccc(Cl)cc2)=C(O)C1=O`: the melting point is 80 to 82 °C.

`Cc1cccc(-c2[nH]c(C(C)C)nc2-c2cccc(-c3ccc(S(=O)(=O)N4CCN(C)CC4)cc3)c2)n1` gave a melting point of 110 to 116 °C.

Regarding `CCCCCCCCCCCCCCCCCCOc1ccc(C(=O)OC)c(O)c1`, the melting point lay in the range of 61 to 64 °C.

Regarding `CCOC(=O)c1cnn2c1CCC2`, the melting point was 35 to 37 °C.

As to `N#Cc1ccc(OCCCc2cc3c(cc2OCc2ccccc2)CC(CCc2ccccc2)O3)cc1` (stereo not drawn), the melting point fell in the range of 154 to 157 °C.

As to `COc1cn(-c2cccc(-c3cccnc3)c2F)nc(-c2ccnn2-c2ccccc2)c1=O`, the melting point is 147 to 153 °C.
